Measurements from patent publication US20250289788A1, “HALOALKYL SULFONANILIDE COMPOUND AND HERBICIDE CONTAINING THE SAME” (SDS BIOTECH K.K., priority 2022, published 2025).

Tests used:
Assay type in all cases: in vivo
[1] = test system: Oryza sativa (OS); experiment: Comparative Example: chemical damage to transplanted rice under flooding conditions; conditions: applied dropwise to water surface, day 21 after treatment
Text: (§1) The control compound a is described as Compound No. III-1 on page 245 of PLT 5, and the control compound b is described as Compound No. III-9 on page 245 of PTL 5. […] As an example, herbicidal efficacy against critical paddy field weeds such as Monochoria vaginalis (MV) and Ammannia multiflora (AM) as well as Oryza sativa (OS) chemical damage were compared and are specifically described below as a Comparative Example.
(§2) [Comparative Example] Herbicidal Efficacy Test of Treatment During Growth Stage […] Under Flooding Conditions
(§3) After each 40-cm^2 plastic cup was loaded with puddled paddy field soil, seeds of each of Monochoria vaginalis (MV) or Ammannia multiflora (AM) were sown and grown in a greenhouse. After plants were grown for 14 days, one rice plant (variety: Nippon-bare) at the 2-leaf stage was transplanted at a transplanting depth of 1 cm. Water was flooded to a depth of 3 cm, and wettable powder containing the present invention compound, which had been adjusted according to Formulation Example 1, or each control compound was diluted with distilled water and applied dropwise to the water surface. The amount applied was 125, 63, or 31 g of active ingredient per hectare. The test was conducted in two series. On day 21 after treatment, the herbicidal efficacy and chemical damage were examined according to the following criteria.
(§4) 9-10 . . . Herbicidal activity “Maximum”, 90% or higher herbicidal efficacy or chemical damage
(§5) 7 to 8 . . . Herbicidal activity “high”, 70% or higher and less than 90% herbicidal efficacy or chemical damage
(§6) 5 to 6 . . . Herbicidal activity “medium”, 50% or higher and less than 70% herbicidal efficacy or chemical damage
(§7) 0 to 4 . . . Herbicidal activity “none to low”, 0% or higher and less than 50% herbicidal efficacy or chemical damage

[2] = test system: Monochoria vaginalis (MV); experiment: Comparative Example: herbicidal efficacy test of treatment during growth stage under flooding conditions; conditions: treatment during growth stage (14 days after sowing), day 21 after treatment
Text: as §1, §2, §3, §4, §5, §6, §7

[3] = test system: Ammannia multiflora (AM); experiment: as above; conditions: treatment during growth stage (14 days after sowing), day 21 after treatment
Text: as §1, §2, §3, §4, §5, §6, §7

[4] = test system: Schoenoplectiella juncoides (SJ); experiment: Test Example 1: herbicidal effect test using paddy field flooding treatment; conditions: dose 16 g a.i./ha, water surface application, 21 days after treatment
Description: (§8) <Test Example 1> Herbicidal Effect Test Using Paddy Field Flooding Treatment
(§9) After each 40-cm^2 plastic cup was loaded with puddled paddy field soil, seeds of each of the following species were sown and grown in a greenhouse: Echinochloa crus-galli var. oryzicola (EC), Schoenoplectiella juncoides (SJ), Monochoria vaginalis (MV), or Ammannia multiflora (AM). After plants were grown for 14 days, water was flooded to a depth of 3 cm, and a 10% wettable powder, which had been adjusted according to Formulation Example 1, was diluted with distilled water and applied dropwise to the water surface. The amount applied was 1000, 500, 250, 125, 63, 31, or 16 g of active ingredient per hectare. The test was conducted in two series. Herbicidal efficacy (degree (%) of suppression of growth of terrestrial part: 100 (complete death) to 0 (no action)) was investigated at 21 days after the treatment.

[5] = test system: Echinochloa crus-galli var. oryzicola (EC); experiment: as above; conditions: dose 1000 g a.i./ha, water surface application, 21 days after treatment
Description: as §8, §9

SMILES	chemical damage to transplanted rice OS (score 0-10) ([1]; 31 g a.i./ha)	chemical damage to transplanted rice OS (score 0-10) ([1]; 63 g a.i./ha)	chemical damage to transplanted rice OS (score 0-10) ([1]; 125 g a.i./ha)	herbicidal efficacy MV (score 0-10) ([2]; 31 g a.i./ha)	herbicidal efficacy MV (score 0-10) ([2]; 63 g a.i./ha)	herbicidal efficacy MV (score 0-10) ([2]; 125 g a.i./ha)	herbicidal efficacy AM (score 0-10) ([3]; 31 g a.i./ha)	herbicidal efficacy AM (score 0-10) ([3]; 63 g a.i./ha)	herbicidal efficacy AM (score 0-10) ([3]; 125 g a.i./ha)	herbicidal efficacy (degree (%) of suppression of growth of terrestrial part) [4]	herbicidal efficacy (degree (%) of suppression of growth of terrestrial part) [5]
O=C1c2ccccc2CCN1Cc1ccccc1NS(=O)(=O)C(F)(F)F [Compound 3-1]	0	0	0	10	10	10	10	10	10		
CC=CC(=O)N(c1ccccc1CN1CCc2c(F)ccc(F)c2C1=O)S(=O)(=O)C(F)(F)F [Compound 3-116]										≥ 80%	
CCOC(=O)N(c1ccccc1CN1CCc2ccccc2C1=O)S(=O)(=O)C(F)(F)F [Compound 3-139]	0	0	0	7	10	10	10	10	10		
O=C1Cc2cc(F)ccc2N1Cc1ccccc1NS(=O)(=O)C(F)(F)F [Compound 8-2]											≥ 80%
O=C1CCCCN1Cc1ccccc1NS(=O)(=O)C(F)(F)F [Compound a]	6	10	10	10	10	10	10	10	10		
CCOC(=O)N(c1ccccc1CN1CCCCC1=O)S(=O)(=O)C(F)(F)F [Compound b]	3	8	10	7	10	10	10	10	10		
